Assay results from patent publication US10561681B2, “Antimetastatic 2H-selenopheno[3,2-h]chromenes, synthesis thereof, and methods of using same agents” (Latvian Institute of Organic Synthesis, priority 2016, dated 2020).
Values joined by “and” are separate entries in the source; they are usually repeats but may differ in a detail not shown here. Identical values can stand only once. Marks after values point to notes of the source that are not given here.

Assays:
[1] = system: MCF-7 (human breast adenocarcinoma, estrogen-positive); assay: In vitro cytotoxicity, MTT test; type: cell-based; conditions: MCF7, MTT, 72 h, read-out: Cytotoxicity IC50, MCF-7
Procedure: (§1) Anticancer activity of selenopheno[h]chromenes was tested in vitro using cytotoxicity assay. […] About 2-9·10^4 cells/mL (depending on line nature) were placed in 96-well plates immediately after compounds were added to the wells. Untreated cells were used as a control. The plates were incubated for 72 h, 37° C., 5% CO2. The number of surviving cells was determined using 3-(4,5-dimethylthiazol-2-yl)-2,5-diphenyltetrazolinium bromide (MTT). MTT-test: after incubating culture medium was removed and 200 μL fresh medium with 10 mM HEPES was added in each well of the plate, than 20 μL MTT (2 mg/mL in HBSS) was added. After incubation (3 hr, 37° C., 5% CO2), the medium with MTT was removed and 200 μL DMSO were added at once to each sample. The samples were tested at 540 nm on Anthos HT II photometer.

CCL-8 (mouse sarcoma) = assay: In vitro cytotoxicity, MTT test; type: cell-based; conditions: MTT, 72 h, read-out: Cytotoxicity IC50, CCL-8
Procedure: as §1

[2] = system: HT-1080 (human fibrosarcoma); assay: In vitro cytotoxicity, MTT test; type: cell-based; conditions: HT-1080, MTT, 72 h, read-out: Cytotoxicity IC50, HT-1080
Procedure: as §1

[3] = system: SH-SY5Y (human neuroblastoma); assay: In vitro cytotoxicity, MTT test; type: cell-based; conditions: Homo sapiens, SH-SY5Y, 72 h, MTT, read-out: Cytotoxicity IC50, SHSY5Y
Procedure: as §1

[4] = system: MES-SA (human uterus sarcoma); assay: In vitro cytotoxicity, MTT test; type: cell-based; conditions: MTT, 72 h, read-out: Cytotoxicity IC50, MES-SA
Procedure: as §1

[5] = system: A549 (human lung carcinoma); assay: In vitro cytotoxicity, MTT test; type: cell-based; conditions: Homo sapiens, A549, 72 h, MTT, 72 h; read-out: Cytotoxicity IC50, A549
Procedure: as §1

MG-22A (mouse hepatoma) = assay: In vitro cytotoxicity, MTT test; type: cell-based; conditions: MTT, 72 h, read-out: Cytotoxicity IC50, MG-22A
Procedure: as §1

[6] = system: MDA-MB-435s (human melanoma); assay: In vitro cytotoxicity, MTT test; type: cell-based; conditions: MTT, 72 h, read-out: Cytotoxicity IC50, MDA-MB-435s
Procedure: as §1

[7] = system: HepG2 (human hepatocellular carcinoma); assay: In vitro cytotoxicity, MTT test; type: cell-based; conditions: HepG2, MTT, 72 h, read-out: Cytotoxicity IC50, HepG2
Procedure: as §1

[8] = Basal cytotoxicity test, Neutral Red Uptake (NRU) assay; type: cell-based
Procedure: (§2) In parallel, the borderline concentration relevant to the highest tolerated dose has been determined for each compound using the NIH 3T3 (mouse embryo fibroblasts) cell line and the basal cytotoxicity obtained has then been used to predict the starting doses for in vivo acute oral LD50 values in rodents.
(§3) the Neutral Red Uptake (NRU) assay was performed according to the standard protocol of Stokes modified by the NICEATM-ECVAM validation study. The NRU cytotoxicity assay procedure is based on the ability of viable cells to incorporate and bind Neutral Red, a supravitally dye. Balb/c 3T3 (Mouse Swiss Albino embryo fibroblast) cells (9000 cells/well) were placed into 96-well plates for 24 h in Dulbecco's modified Eagle's (DMEM) medium containing 5% fetal bovine serum. The cells were then exposed to the test compounds over a range of […] concentrations (1000, 316, 100, 31, 10, 3, 1 μg/ml) for 24 h. Untreated cells were used as a control. After 24 h, the medium was removed from all plates. Then, 250 μL of Neutral Red solution were added (0.05 mg/mL NR in DMEM 24 h pre-incubated at 37° C. and then filtered before use through 0.22-μm syringe filter). Plates were incubated for 3 h and then cells were washed three times with PBS. The dye within viable cells was released by extraction with a mixture of acetic acid, ethanol and water (1:50:49). Absorbance of Neutral Red was measured using a spectrophotometer multiplate reader (TECAN, Infinite M1000) at 540 nm. The percentage of living cells was calculated using the formula: OD (treated cells)*100/OD (control cells). The IC50 values were calculated using the programme Graph Pad Prism® 3.0.
(§4) Data from the in vitro tests were used for estimating the starting dose for acute oral systemic toxicity tests in rodents. […] The value is recalculated to mg/kg and compounds are evaluated in accordance with four toxicity categories: category 1: LD50≤5 mg/kg (highly toxic); category 2: 5<LD50≤50 mg/kg (moderately toxic); category 3: 50<LD50≤300 mg/kg (slightly toxic); category 4: 300<LD50≤2 000 mg/kg (practically non-toxic).

[9] = system: 3T3 (mouse embryo fibroblasts); assay: as above; type: cell-based
Procedure: as §2, §3, §4

malignant tumor cells = assay: In vitro cytotoxicity on monolayer tumor cell lines (panel, summary in words); type: cell-based; conditions: summary of Table 1
Procedure: Anticancer activity of selenopheno[h]chromenes was tested in vitro using cytotoxicity assay. Thus, monolayer tumor cell lines MDA-MB-435s (human melanoma), MCF-7 (human breast adenocarcinoma, estrogen-positive), MES-SA (human uterus sarcoma), HT-1080 (human fibrosarcoma), A549 (human lung carcinoma), SH-SY5Y (human neuroblastoma), CCL-8 (mouse sarcoma), MG-22A (mouse hepatoma), and HepG2 (human hepatocellular carcinoma) were cultured in standard medium DMEM (Dulbecco's modified Eagle's medium) (“Sigma”) supplemented with 10% fetal bovine serum (“Sigma”). About 2-9·10^4 cells/mL (depending on line nature) were placed in 96-well plates immediately after compounds were added to the wells. Untreated cells were used as a control. The plates were incubated for 72 h, 37° C., 5% CO2. The number of surviving cells was determined using 3-(4,5-dimethylthiazol-2-yl)-2,5-diphenyltetrazolinium bromide (MTT). MTT-test: after incubating culture medium was removed and 200 μL fresh medium with 10 mM HEPES was added in each well of the plate, than 20 μL MTT (2 mg/mL in HBSS) was added. After incubation (3 hr, 37° C., 5% CO2), the medium with MTT was removed and 200 μL DMSO were added at once to each sample. The samples were tested at 540 nm on Anthos HT II photometer.

[10] = system: mouse sarcoma CCRF-S180 II (CCL-8); assay: Mouse non-metastatic cancer model, sarcoma CCL-8 s.c. in ICR mice; type: in vivo; conditions: s.c. Day 1, 2, 3, 4, 7, 8, 9, 10, 11; dose 5 mg/kg, total dose 45 mg/kg
Procedure: Six-week-old female ICR and BALB/c mice were purchased from the University of Tartu Laboratory Animal Centre (Estonia). The mice were housed five to a cage, and under standard conditions (21-23° C., 12 h light: dark cycle), fed ad libitum (R3 diet, Lactamin AB, Kimstad, Sweden) and observed daily. The experimental procedures involving experimental animals were carried out in accordance with the guidelines of the European Community, local laws and policies, and were approved by the Latvian Animal Protection Ethical Committee, the Food and Veterinary Service, Riga, Latvia.
In vivo studies were performed utilizing the mouse sarcoma CCRF-S180 II (CCL-8) and Lewis lung carcinoma (LLC) cell line. All cell lines were purchased from ATCC. The cells were grown in Dulbecco's modified Eagle's medium (Sigma) supplemented with 10% fetal calf serum (Sigma).
ICR mice were subcutaneously inoculated in the back with 5×10^6 CCL-8 cells and BALB/c mice were inoculated with 1×10^6 LLC (Lewis Lung Carcinoma) cells, which were suspended in 0.1 mL of PBS on day zero of the study. The compounds dissolved in DMSO and then in 0.1 mL water (DMSO final concentration 1%) were injected s.c. Mice in the untreated group were similarly given doses of 0.1 mL of water with DMSO. Tumor volume (tumor volume V=[…], a is maximal and b the minimal tumor diameter) was recorded twice per week. The mice were examined every other day for diseases including appearance, weight and behavior. The mice were sacrificed at day 16 of the experiment by decapitation after ketamine/xylazine anesthesia.

Q: With `COC(=O)c1cc2ccc3c(Br)c(CN4CCOCC4)[se]c3c2oc1=O` [Compound I-9, Methyl 7-bromo-8-(morpholinomethyl)-2-oxo-2H-selenopheno[3,2-h]chromene-3-carboxylate] as the molecule, how does the IC50 [1] read?
A: 81 ± 6 µM

Q: What about the IC50 (CCL-8 (mouse sarcoma)) of the same molecule?
A: 84 ± 6 µM

Q: What about the IC50 [2] of the same molecule?
A: 86 ± 6 µM

Q: And the IC50 [3]?
A: 46 ± 9 µM

Q: And the IC50 [4]?
A: 54 ± 7 µM

Q: And the IC50 [5]?
A: 86 ± 6 µM

Q: And the IC50 (MG-22A (mouse hepatoma))?
A: 48 ± 3 µM

Q: What about the IC50 [6] of the same molecule?
A: 67 ± 8 µM

Q: And the IC50 [7]?
A: 90 ± 6 µM

Q: And the LD50 at 24 h ([8]; mouse, po, acute oral LD50 calculated from 3T3 NRU IC50 by regression formula, read-out: Basal cytotoxicity Estimated* LD50)?
A: 2400 µmol/kg and 1250 mg/kg

Q: What about the IC50 at 24 h ([8]; normal mouse embryo fibroblasts, read-out: Cytotoxicity IC50, 3T3) of the same molecule?
A: 56 ± 3 µM

Q: What about the “Toxicity against normal NIH 3T3 cells” value [9] of the same molecule?
A: the most toxic among studied chromenes

Q: And the “Cytotoxicity on cancer cell lines” value (malignant tumor cells)?
A: medium cytotoxicity

Q: What about the “Anticancer activity in vivo (inhibition, %), CCL-8 tumor volume” value [10] of the same molecule?
A: 38** %
